Reference: patent US6737383B1, “Herbicidal oxadiazolidines” (priority 1999, dated 2004)

Tests used:
corn = assay: Test C postemergence corn; format: in vivo, Zea mays; conditions: 0 to 100 scale, 0 no effect, 100 complete control
Summary of the method: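 Foliar postemergence treatment of greenhouse plants grown in 60:40 sandy loam:potting mix; compounds delivered in non-phytotoxic solvent with surfactant. Evaluation is visual, 0–100, after ~14–21 d.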

eastern black nightshade = assay: Test C postemergence eastern black nightshade; format: in vivo, Solanum ptycanthum; conditions: 0 to 100 scale, 0 no effect, 100 complete control
Experimental: Compounds evaluated in this test were formulated in a non-phytotoxic solvent mixture which included a surfactant and applied to plants that were grown for various periods of time before treatment (postemergence application). A mixture of sandy loam soil and greenhouse potting mix in a 60:40 ratio was used for the postemergence test.
Plantings of these crops and weed species were adjusted to produce plants of appropriate size for the postemergence test. All plant species were grown using normal greenhouse practices. Crop and weed species include arrowleaf sida (Sida rhombifolia), barnyardgrass (Echinochloa crus-galli), cocklebur (Xanthium strumarium), common ragweed (Ambrosia elatior), corn (Zea mays), cotton (Gossypium hirsutum), eastern black nightshade (Solanum ptycanthum), fall panicum (Panicum dichotomiflorum), field bindweed (Convolvulus arvensis), giant foxtail (Setaria faberii), hairy beggarticks (Bidens pilosa), ivyleaf morningglory (Ipomoea hederacea), johnsongrass (Sorghum halepense), ladysthumb smartweed (Polygonum persicaria), lambsquarters (Chenopodium album), large crabgrass (Digitaria sanguinalis), purple nutsedge (Cyperus rotundus), redroot pigweed (Amaranthus retroflexus), soybean (Glycine max), surinam grass (Brachiaria decumbens), velvetleaf (Abutilon theophrasti) and wild poinsettia (Euphorbia heterophylla).
Treated plants and untreated controls were maintained in a greenhouse for approximately 14, to 21 days, after which all treated plants were compared to untreated controls and visually evaluated. Plant response ratings, summarized in Table C, were based upon a 0 to 100 scale where 0 was no effect and 100 was complete control. A dash response (−) means no test result.

blackgrass = assay: Test E blackgrass; format: in vivo, Alopecurus myosuroides; conditions: Postemergence
Experimental: (§1) Compounds evaluated in this test were formulated in a non-phytotoxic solvent mixture which included a surfactant and applied to plants that were in the 1- to 4-leaf stage (postemergence application). A mixture of sandy loam soil and greenhouse potting mix in a 60:40 ratio was used for the postemergence test.
(§2) Plantings of these crops and weed species were adjusted to produce plants of appropriate size for the postemergence test. All plant species were grown using normal greenhouse practices. Crop and weed species include annual bluegrass (Poa annua), blackgrass (Alopecurus myosuroides), black nightshade (Solanum nigra), chickweed (Stellaria media), common poppy (Papaver rhoeas), deadnettle (Lamium amplexicaule), downy brome (Bromus tectorum), field violet (Viola arvensis), galium (Galium aparine), green foxtail (Setaria viridis), Italian ryegrass (Lolium multiflorum), jointed goatgrass (Aegilops cylindrica), kochia (Kochia scoparia), lambsquarters (Chenopodium album), littleseed canarygrass (Phalaris minor), rape (Brassica napus), redroot pigweed (Amaranthus retroflexus), Russian thistle (Salsola kali), scentless chamomile (Matricaria inodora), spring barley (Hordeum vulgare), sugar beet (Beta vulgaris), sunflower (Helianthus annuus), ivyleaf speedwell (Veronica hederaefolia), spring wheat (Triticum aestivum), winter wheat (Triticum aestivum), wild buckwheat (Polygonum convolvulus), wild mustard (Sinapis arvensis), wild oat (Avena fatua), windgrass (Apera spica-venti) and winter barley (Hordeum vulgare).
(§3) Treated plants and untreated controls were maintained in a greenhouse for approximately 21 to 28 days, after which all treated plants were compared to untreated controls and visually evaluated. […] A dash response (-) means no test result.

black nightshade [1] = assay: Test E black nightshade; format: in vivo, Solanum nigra; conditions: Postemergence
Experimental: as §1, §2, §3

galium [2] = assay: Test E galium; format: in vivo, Galium aparine; conditions: Postemergence
Experimental: […] A mixture of sandy loam soil and greenhouse potting mix in a 60:40 ratio was used for the postemergence test.
as §2, §3

Italian ryegrass = assay: Test E Italian ryegrass; format: in vivo, Lolium multiflorum; conditions: Postemergence
Experimental: as §1, §2, §3

rape = assay: Test E rape; format: in vivo, Brassica napus; conditions: Postemergence
Summary of the method: (§4)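 Compound formulated with surfactant in a non-phytotoxic solvent (postemergence: young 1- to 4-leaf plants); held in greenhouse approx. 21–28 days; visual assessment against untreated plants.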

wild buckwheat = assay: Test E wild buckwheat; format: in vivo, Polygonum convolvulus; conditions: Postemergence
Experimental: as §1, §2, §3

windgrass = assay: Test E windgrass; format: in vivo, Apera spica-venti; conditions: Postemergence
Summary of the method: as §4

Johnson grass = assay: Test D Johnson grass; format: in vivo, Sorghum halepense; conditions: Postemergence, 0 to 100 scale
black nightshade [3] = assay: Test E black nightshade; format: in vivo, Solanum nigra; conditions: Preemergence
galium [4] = assay: Test E galium; format: in vivo, Galium aparine; conditions: Preemergence
spring barley = assay: Test E spring barley; format: in vivo, Hordeum vulgare; conditions: Preemergence
sunflower = assay: Test E sunflower; format: in vivo, Helianthus annuus; conditions: Preemergence
spring wheat = assay: Test E spring wheat; format: in vivo, Triticum aestivum; conditions: Preemergence
Green foxtail = assay: Test D green foxtail; format: in vivo; conditions: Postemergence, 0 to 100 scale, 0 no injury, 100 complete control
[5] = Rate 500 g/ha, 0 to 100 scale, 0 no effect, 100 complete control
[6] = Rate 250 g/ha, 0 to 100 scale where 0 is no effect and 100 is complete control
[7] = Rate 125 g/ha, 0 to 100 scale (0 no effect, 100 complete control)
[8] = Rate 500 g/ha, 0 to 100 scale where 0 is no effect and 100 is complete control
[9] = Rate 250 g/ha, 0 to 100 scale (0 no effect, 100 complete control)

Compound: CC(C)N(C(=O)n1oc(=O)n(C(C)C)c1=O)c1ccc(F)cc1 [Compound 131]
- Plant response rating, Corn (corn; Rate 140 g/ha): 0
- Plant response rating, Corn (corn; Rate 280 g/ha): 0
- Plant response rating, Corn (corn; Rate 560 g/ha): 5
- Plant response rating, Corn (corn; Rate 1120 g/ha): 40
- Plant response rating E. blacknightsh (eastern black nightshade; Rate 140 g/ha): 0
- Plant response rating E. blacknightsh (eastern black nightshade; Rate 280 g/ha): 10
- Plant response rating E. blacknightsh (eastern black nightshade; Rate 560 g/ha): 50
- Plant response rating E. blacknightsh (eastern black nightshade; Rate 1120 g/ha): 80
- Plant response rating, Blackgrass (blackgrass; Rate 62 g/ha, 0 to 100 scale): 85
- Plant response rating, Blackgrass (blackgrass; Rate 125 g/ha, 0 to 100 scale): 20
- Plant response rating, Blackgrass (blackgrass; [5]): 75
- Blackgrass plant response rating (blackgrass; [6]): 60
- Plant response rating, Blk nightshade (black nightshade [1]; Rate 62 g/ha, 0 to 100 scale): 50
- Plant response rating, Blk nightshade (black nightshade [1]; Rate 125 g/ha, 0 to 100 scale): 50
- Plant response rating, Blk nightshade (black nightshade [1]; [5]): 70
- Blk nightshade plant response rating (black nightshade [1]; [6]): 60
- Plant response rating, Galium (galium [2]; Rate 62 g/ha, 0 to 100 scale): 50
- Plant response rating, Galium (galium [2]; Rate 125 g/ha, 0 to 100 scale): 10
- Plant response rating, Galium (galium [2]; [5]): 50
- Galium plant response rating (galium [2]; [6]): 0
- Plant response rating, I. Ryegrass (Italian ryegrass; Rate 62 g/ha, 0 to 100 scale): 50
- Plant response rating, I. Ryegrass (Italian ryegrass; Rate 125 g/ha, 0 to 100 scale): 0
- Plant response rating, I. Ryegrass (Italian ryegrass; [5]): 40
- I. Ryegrass plant response rating (Italian ryegrass; [6]): 30
- Plant response rating, Rape (rape; Rate 62 g/ha, 0 to 100 scale): 10
- Plant response rating, Rape (rape; Rate 125 g/ha, 0 to 100 scale): 0
- Plant response rating, Rape (rape; [5]): 0
- Rape plant response rating (rape; [6]): 0
- Plant response rating, Wild buckwheat (wild buckwheat; Rate 62 g/ha, 0 to 100 scale): 50
- Plant response rating, Wild buckwheat (wild buckwheat; Rate 125 g/ha, 0 to 100 scale): 0
- Plant response rating, Wild buckwheat (wild buckwheat; [5]): 0
- Wild buckwheat plant response rating (wild buckwheat; [6]): 0
- Plant response rating, Windgrass (windgrass; Rate 62 g/ha, 0 to 100 scale): 85
- Windgrass plant response rating (windgrass; [6]): 90
- Plant response rating Johnsongrass (Johnson grass; Rate 16 g/ha, 0 no injury, 100 complete control): 0
- Plant response rating Johnsongrass (Johnson grass; Rate 32 g/ha, 0 no injury, 100 complete control): 0
- Plant response rating Johnsongrass (Johnson grass; Rate 64 g/ha, 0 no injury, 100 complete control): 30
- Plant response rating Johnsongrass (Johnson grass; Rate 125 g/ha, 0 no injury, 100 complete control): 60
- Plant response rating Johnsongrass (Johnson grass; Rate 250 g/ha): 100
- Plant response rating, Blk nightshade (black nightshade [3]; [7]): 70
- Blk nightshade plant response rating (0 to 100 scale) (black nightshade [3]; Rate 250 g/ha): 85
- Plant response rating, Blk nightshade (black nightshade [3]; [8]): 90
- Plant response rating, Galium (galium [4]; [7]): 60
- Galium plant response rating (0 to 100 scale) (galium [4]; Rate 250 g/ha): 50
- Plant response rating, Galium (galium [4]; [8]): 100
- Plant response rating, Spring Barley (spring barley; [7]): 20
- Spring Barley plant response rating (0 to 100 scale) (spring barley; Rate 250 g/ha): 70
- Plant response rating, Spring Barley (spring barley; [8]): 85
- Plant response rating, Sunflower (sunflower; [7]): 20
- Sunflower plant response rating (0 to 100 scale) (sunflower; Rate 250 g/ha): 20
- Plant response rating, Sunflower (sunflower; [8]): 20
- Plant response rating, Spring Wheat (spring wheat; [7]): 70
- Spring Wheat plant response rating (0 to 100 scale) (spring wheat; Rate 250 g/ha): 100
- Plant response rating, Spring Wheat (spring wheat; [8]): 100
- Plant response rating, Green foxtail (Green foxtail; Rate 16 g/ha): 0
- Plant response rating, Green foxtail (Green foxtail; Rate 32 g/ha): 60

Compound: CC(C)N(C(=O)n1oc(=O)n(C(C)C)c1=O)c1ccc(Cl)cc1 [Compound 114]
- Plant response rating, Blackgrass (blackgrass; Rate 125 g/ha, 0 to 100 scale): 0
- Plant response rating, Blackgrass (blackgrass; [9]): 20
- Plant response rating, Blackgrass (blackgrass; [5]): 65
- Plant response rating, Blk nightshade (black nightshade [1]; Rate 125 g/ha, 0 to 100 scale): 50
- Plant response rating, Blk nightshade (black nightshade [1]; [9]): 40
- Plant response rating, Blk nightshade (black nightshade [1]; [5]): 80
- Plant response rating, Galium (galium [2]; Rate 125 g/ha, 0 to 100 scale): 10
- Plant response rating, Galium (galium [2]; [9]): 50
- Plant response rating, Galium (galium [2]; [5]): 85
- Plant response rating, I. Ryegrass (Italian ryegrass; Rate 125 g/ha, 0 to 100 scale): 10
- Plant response rating, I. Ryegrass (Italian ryegrass; [9]): 20
- Plant response rating, I. Ryegrass (Italian ryegrass; [5]): 20
- Plant response rating, Rape (rape; Rate 125 g/ha, 0 to 100 scale): 55
- Plant response rating, Rape (rape; [9]): 50
- Plant response rating, Rape (rape; [5]): 55
- Plant response rating, Wild buckwheat (wild buckwheat; Rate 125 g/ha, 0 to 100 scale): 20
- Plant response rating, Wild buckwheat (wild buckwheat; [9]): 30
- Plant response rating, Wild buckwheat (wild buckwheat; [5]): 30
- Plant response rating, Blk nightshade (black nightshade [3]; [7]): 20
- Plant response rating, Blk nightshade (black nightshade [3]; Rate 250 g/ha, 0 to 100 scale): 60
- Plant response rating, Blk nightshade (black nightshade [3]; [8]): 90
- Plant response rating, Galium (galium [4]; [7]): 100
- Plant response rating, Galium (galium [4]; Rate 250 g/ha, 0 to 100 scale): 60
- Plant response rating, Galium (galium [4]; [8]): 70
- Plant response rating, Spring Barley (spring barley; [7]): 0
- Plant response rating, Spring Barley (spring barley; Rate 250 g/ha, 0 to 100 scale): 0
- Plant response rating, Spring Barley (spring barley; [8]): 20
- Plant response rating, Sunflower (sunflower; [7]): 0
- Plant response rating, Sunflower (sunflower; Rate 250 g/ha, 0 to 100 scale): 0
- Plant response rating, Sunflower (sunflower; [8]): 5
- Plant response rating, Spring Wheat (spring wheat; [7]): 0
- Plant response rating, Spring Wheat (spring wheat; Rate 250 g/ha, 0 to 100 scale): 10
- Plant response rating, Spring Wheat (spring wheat; [8]): 20

Compound: CCn1c(=O)on(C(=O)N(c2ccccc2)C(C)C)c1=O [Compound 117]
- Plant response rating, Corn (corn; Rate 140 g/ha): 0
- Plant response rating, Corn (corn; Rate 280 g/ha): 0
- Plant response rating, Corn (corn; Rate 560 g/ha): 40
- Plant response rating, Corn (corn; Rate 1120 g/ha): 85
- Plant response rating E. blacknightsh (eastern black nightshade; Rate 140 g/ha): 0
- Plant response rating E. blacknightsh (eastern black nightshade; Rate 280 g/ha): 0
- Plant response rating E. blacknightsh (eastern black nightshade; Rate 560 g/ha): 70
- Plant response rating E. blacknightsh (eastern black nightshade; Rate 1120 g/ha): 80
